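Dose response: 5 concentrations. Exposure: 48 h. Format: 96-well plates. Endpoint: linear interpolation; highest concentration if not reached. GI50 = concentration required for 50% inhibition of growth. TGI: total growth inhibition.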
Key:
Assay in all cases: inhibition of tumour cell growth, NCI panel, 48 h
[1] = tested on: SK-MEL-2 melanoma
[2] = tested on: U251 CNS
[3] = tested on: HOP-92 NSCLC
[4] = tested on: HCT-116 colon
[5] = tested on: UACC-62 melanoma
[6] = tested on: IGROV1 ovarian
[7] = tested on: HCT-15 colon
[8] = tested on: COLO 205 colon
[9] = tested on: RXF 393 renal
[10] = tested on: NCI-H460 lung
[11] = tested on: HOP-62 NSCLC
[12] = tested on: SK-MEL-28 melanoma
[13] = tested on: OVCAR-5 ovarian
[14] = tested on: K-562 leukemia
[15] = tested on: SK-OV-3 ovarian
[16] = tested on: HCC-2998 colon
[17] = tested on: CAKI-1 renal
[18] = tested on: OVCAR-4 ovarian
[19] = tested on: UACC-257 melanoma
[20] = tested on: M14 melanoma
[21] = tested on: NCI-H522 lung
[22] = tested on: BT-549 breast
[23] = tested on: TK-10 renal
[24] = tested on: NCI-H23 lung
[25] = tested on: SF-539 CNS
[26] = tested on: SNB-75 CNS
[27] = tested on: SF-268 CNS
[28] = tested on: OVCAR-8 ovarian
[29] = tested on: MDA-MB-231 breast

**Q.** How did the GI50 [1] turn out when `O=C(/C=C/c1cc2ccccc2[nH]c1=O)c1ccc(Cl)cc1` was run?
**A.** Its GI50 is 30.1 µM.

**Q.** And the TGI [1]?
**A.** Its TGI is greater than 63.6 µM.

**Q.** What about the GI50 [2] of the same compound?
**A.** Its GI50 is 19.1 µM.

**Q.** And the TGI [2]?
**A.** The TGI was greater than 48.5 µM.

**Q.** What about the GI50 [3] of the same compound?
**A.** The GI50 was 21.6 µM.

**Q.** And the TGI [3]?
**A.** The TGI was 76.8 µM.

**Q.** And the GI50 [4]?
**A.** The GI50 was 18 µM.

**Q.** What about the TGI [4] of the same compound?
**A.** The TGI was 49.1 µM.

**Q.** And the GI50 [5]?
**A.** The GI50 was 26.4 µM.

**Q.** What about the TGI [5] of the same compound?
**A.** Its TGI is greater than 81.6 µM.

**Q.** What about the GI50 [6] of the same compound?
**A.** Its GI50 is 23.3 µM.

**Q.** And the TGI [6]?
**A.** Its TGI is greater than 52.8 µM.

**Q.** And the GI50 [7]?
**A.** The GI50 was 20.2 µM.

**Q.** And the TGI [7]?
**A.** The TGI was greater than 58.7 µM.

**Q.** And the GI50 [8]?
**A.** The GI50 was 37.4 µM.

**Q.** And the TGI [8]?
**A.** Its TGI is greater than 80 µM.

**Q.** And the GI50 [9]?
**A.** The GI50 was 22.9 µM.

**Q.** And the TGI [9]?
**A.** The TGI was greater than 60.2 µM.

**Q.** What about the GI50 [10] of the same compound?
**A.** Its GI50 is 26.2 µM.

**Q.** What about the TGI [10] of the same compound?
**A.** The TGI was greater than 57.3 µM.

**Q.** What about the GI50 [11] of the same compound?
**A.** The GI50 was 29.6 µM.

**Q.** What about the TGI [11] of the same compound?
**A.** The TGI was greater than 76.2 µM.

**Q.** What about the GI50 [12] of the same compound?
**A.** Its GI50 is greater than 56.1 µM.

**Q.** What about the TGI [12] of the same compound?
**A.** Its TGI is greater than 89.8 µM.

**Q.** What about the GI50 [13] of the same compound?
**A.** Its GI50 is 38.2 µM.

**Q.** And the TGI [13]?
**A.** The TGI was 99 µM.

**Q.** What about the GI50 [14] of the same compound?
**A.** The GI50 was greater than 71.3 µM.

**Q.** What about the TGI [14] of the same compound?
**A.** The TGI was greater than 100 µM.

**Q.** And the GI50 [15]?
**A.** Its GI50 is 55.1 µM.

**Q.** And the TGI [15]?
**A.** Its TGI is greater than 100 µM.

**Q.** And the GI50 [16]?
**A.** Its GI50 is 25.1 µM.

**Q.** What about the TGI [16] of the same compound?
**A.** Its TGI is 56.6 µM.

**Q.** And the GI50 [17]?
**A.** The GI50 was 16.8 µM.

**Q.** And the TGI [17]?
**A.** Its TGI is greater than 32.1 µM.

**Q.** And the GI50 [18]?
**A.** The GI50 was 17.3 µM.

**Q.** What about the TGI [18] of the same compound?
**A.** Its TGI is greater than 100 µM.

**Q.** And the GI50 [19]?
**A.** Its GI50 is 33.5 µM.

**Q.** And the TGI [19]?
**A.** Its TGI is greater than 77.7 µM.

**Q.** What about the GI50 [20] of the same compound?
**A.** Its GI50 is 28.7 µM.

**Q.** And the TGI [20]?
**A.** The TGI was greater than 73.5 µM.

**Q.** What about the GI50 [21] of the same compound?
**A.** Its GI50 is 15.7 µM.

**Q.** What about the TGI [21] of the same compound?
**A.** Its TGI is 32.1 µM.

**Q.** And the GI50 [22]?
**A.** The GI50 was 24.9 µM.

**Q.** What about the TGI [22] of the same compound?
**A.** Its TGI is greater than 55.6 µM.

**Q.** And the GI50 [23]?
**A.** Its GI50 is 26.4 µM.

**Q.** What about the TGI [23] of the same compound?
**A.** The TGI was greater than 59.3 µM.

**Q.** And the GI50 [24]?
**A.** The GI50 was 27.3 µM.

**Q.** What about the TGI [24] of the same compound?
**A.** The TGI was 97.7 µM.

**Q.** What about the GI50 [25] of the same compound?
**A.** Its GI50 is 16.9 µM.

**Q.** What about the TGI [25] of the same compound?
**A.** The TGI was 39.3 µM.

**Q.** And the GI50 [26]?
**A.** The GI50 was 22.4 µM.

**Q.** And the TGI [26]?
**A.** Its TGI is 61.5 µM.

**Q.** And the GI50 [27]?
**A.** Its GI50 is 28 µM.

**Q.** What about the TGI [27] of the same compound?
**A.** Its TGI is greater than 85.8 µM.

**Q.** And the GI50 [28]?
**A.** The GI50 was 25.3 µM.

**Q.** And the TGI [28]?
**A.** The TGI was greater than 59.6 µM.

**Q.** What about the GI50 [29] of the same compound?
**A.** The GI50 was 25.5 µM.

**Q.** What about the TGI [29] of the same compound?
**A.** Its TGI is 61.3 µM.

Reference: PubChem BioAssay (NCI)
